The values that follow come from patent US20040152672A1, “Indole compounds useful for the treatment of cancer” (priority 2000, published 2004).

Like-named read-outs stand apart in the source and are kept apart here. Residues, ends and D or L forms follow the SMILES beside them. *: point of attachment. Cbz = O=C(OCc1ccccc1)*; CH2F = FC*

One series relates to Mcl-1. Briefly: Mcl-1 level in LNCaP cells by SDS-PAGE immunoblot. As to conditions: for effect on the etodolac-induced fall in Mcl-1 levels: co- or pre-incubation with etodolac, MG-132 at 5.0 μM. Background: A western blot detects proteins with antibodies after separation by electrophoresis.
Series [1] concerns Alva-31.
The test system of series [2] is OVCAR-3.
In series [3] the test system is OVCAR-3. The experiment in a line: Cytotoxicity by MTT assay, confirmed by FACS propidium iodide uptake. (In general: Tetrazolium dyes change colour on reduction, which living cells bring about.)
The subject of series [4] is HCT-116.
A further series concerns Bcl-2 and Bax. Briefly: Bcl-2 and Bax levels in LNCaP cells. As to conditions: etodolac incubation; data not shown.
The test system of series [5] is LNCaP-FGC.
The subject of series [6] is CLL cells. The experiment in a line: In vitro survival of CLL cells taken from patients before and after etodolac tablets. Format: in vivo, human. As to conditions: patient two. The method, then:
Heparinized blood was taken from two patients ([…]) with CLL. Then each patient immediately took a 400 mg etodolac tablet, and a second tablet 12 hours later. After another 12 hours, a second blood specimen was obtained. The CLL cells were isolated and their survival in vitro were compared in RPMI 1640 medium containing 10% autologous plasma, as described in Example 1. The circles show CLL cells before etodolac treatment. In FIGS. 6-7, the upward pointing triangles represent CLL cell viability after etodolac treatment, wherein the cells are dispersed in medium containing the pre-treatment plasma. The downward pointing triangles are CLL cells after treatment maintained in medium with the post-treatment plasma.
FIG. 8 is a flow cytometric analysis of CLL cells from patient two before and after etodolac treatment. […]
To conduct the flow cytometric analysis, the mitochondrial transmembrane potential was analyzed by 3,3′ dihexyloxacarboncyanide iodide (DiOC6), cell membrane permeability by propidium iodide (PI)3 and mitochondrial respiration by dihydrorhodamine 123 (DHR) (See J. A. Royall et al., Arch. Biochem. Biophys., 302, 348 (1993)). […] Cells were analyzed within 30 minutes in a Becton Dickinson FAC-Scalibur cytofluorometer. After suitable […], fluorescence was recorded at different wavelength: DiOC6 and DHR at 525 nm (Fl-1) and PI at 600 nm (FL-3).

Series [7] has as its system A549. The experiment in a line: Cytotoxicity by MTT assay, confirmed by FACS propidium iodide uptake.
The test system of series [8] is A549.
The test system of the next series is normal B cells. The experiment in a line: Viability of normal B lymphocytes (anti-CD19) by DiOC6 fluorescence. The class given is cell-based, human. As to conditions: 1.0 mM etodolac, 24 hours. Here is the method: Peripheral blood lymphocytes from a normal donor were cultured with 1.0 mM etodolac for 24 hours. Then B lymphocytes were identified by staining with anti-CD19 antibody, and viability was assessed by DiOC6 fluorescence. […] When the same viability assay was run with purified CLL cells from the peripheral blood of a CLL patient, the results were different. […] More than 95% of the treated cells were malignant B lymphocytes.

For series [9], the system named is HCT-116. Briefly: Cytotoxicity by MTT assay, confirmed by FACS propidium iodide uptake.
Series [10] deals with LNCaP-FGC. Described as above.
For series [11] the following is noted: cited from earlier work.
For series [12], the system named is normal peripheral blood lymphocytes (PBL). The experiment in a line: Viability of normal PBLs, erythrocin B exclusion assay. As to conditions: FIG. 1; only at this concentration. The class given is cell-based, human.
For series [13], the system named is CLL cells. Briefly: Viability of CLL cells in culture, erythrocin B exclusion assay. Format: cell-based, human. As to conditions: for killing of CLL cells by either drug alone: fludarabine 10 nM or etodolac 10 μM alone, 48 hours, FIG. 3.
Series [14] concerns PC-3.
For series [15], the system named is MDA-MB-231. Briefly: Cytotoxicity by MTT assay, confirmed by FACS propidium iodide uptake.
The subject of another series is Bag-1. Briefly: Bag-1 level in LNCaP cells by SDS-PAGE immunoblot. As to conditions: for effect on the etodolac-induced fall in Bag-1 levels: co- or pre-incubation with etodolac, MG-132 at 5.0 μM.
For series [16], the system named is PC-3. The experiment in a line: Cytotoxicity by MTT assay, confirmed by FACS propidium iodide uptake.
In series [17] the test system is MDA-MB-231.
Series [18] concerns Alva-31. The experiment in a line: Cytotoxicity by MTT assay, confirmed by FACS propidium iodide uptake.
The test system of another series is adjuvant polyarthritis. As to conditions: reduction in paw volume of rats with adjuvant polyarthritis, prostaglandin synthetase inhibitory activity; Demerson et al.; cited from earlier work.
In a further series the target is PPAR-γ (Mus musculus, UniProt P37238). As to conditions: RAW264.7, 24 hours; concentrations readily achieved in human plasma; FIG. 13.
The conditions of series [19]: in vivo.
In another series the target is MRP (Homo sapiens, UniProt P33527). As to conditions: WO98/18490; cited from earlier work.
A further series deals with prostate cancer. As to conditions: TRAMP mouse; Wechter et al. 2000; cited from earlier work.
For another series, the system named is B-cell CLL cells. As to conditions: Bellosillo et al., Blood 1998; cited from earlier work.
Where [20] appears, read: 100 μM etodolac, as early as two hours.

PPAR-γ, sequence (P37238 31-505 limits assumed): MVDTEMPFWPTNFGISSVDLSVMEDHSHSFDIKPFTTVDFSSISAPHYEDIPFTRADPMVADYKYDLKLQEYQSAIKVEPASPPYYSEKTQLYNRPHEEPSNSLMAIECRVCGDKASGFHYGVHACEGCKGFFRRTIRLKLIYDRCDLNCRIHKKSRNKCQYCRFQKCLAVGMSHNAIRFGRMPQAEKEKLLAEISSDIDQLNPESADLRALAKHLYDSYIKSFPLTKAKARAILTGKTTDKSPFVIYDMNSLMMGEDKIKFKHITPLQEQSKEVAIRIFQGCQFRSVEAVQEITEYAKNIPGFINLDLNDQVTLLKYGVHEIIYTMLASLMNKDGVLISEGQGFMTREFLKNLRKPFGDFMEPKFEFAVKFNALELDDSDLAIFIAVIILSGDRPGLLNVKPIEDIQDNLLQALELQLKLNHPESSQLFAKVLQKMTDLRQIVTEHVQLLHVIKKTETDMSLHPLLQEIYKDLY
MRP, sequence (P33527 whole entry): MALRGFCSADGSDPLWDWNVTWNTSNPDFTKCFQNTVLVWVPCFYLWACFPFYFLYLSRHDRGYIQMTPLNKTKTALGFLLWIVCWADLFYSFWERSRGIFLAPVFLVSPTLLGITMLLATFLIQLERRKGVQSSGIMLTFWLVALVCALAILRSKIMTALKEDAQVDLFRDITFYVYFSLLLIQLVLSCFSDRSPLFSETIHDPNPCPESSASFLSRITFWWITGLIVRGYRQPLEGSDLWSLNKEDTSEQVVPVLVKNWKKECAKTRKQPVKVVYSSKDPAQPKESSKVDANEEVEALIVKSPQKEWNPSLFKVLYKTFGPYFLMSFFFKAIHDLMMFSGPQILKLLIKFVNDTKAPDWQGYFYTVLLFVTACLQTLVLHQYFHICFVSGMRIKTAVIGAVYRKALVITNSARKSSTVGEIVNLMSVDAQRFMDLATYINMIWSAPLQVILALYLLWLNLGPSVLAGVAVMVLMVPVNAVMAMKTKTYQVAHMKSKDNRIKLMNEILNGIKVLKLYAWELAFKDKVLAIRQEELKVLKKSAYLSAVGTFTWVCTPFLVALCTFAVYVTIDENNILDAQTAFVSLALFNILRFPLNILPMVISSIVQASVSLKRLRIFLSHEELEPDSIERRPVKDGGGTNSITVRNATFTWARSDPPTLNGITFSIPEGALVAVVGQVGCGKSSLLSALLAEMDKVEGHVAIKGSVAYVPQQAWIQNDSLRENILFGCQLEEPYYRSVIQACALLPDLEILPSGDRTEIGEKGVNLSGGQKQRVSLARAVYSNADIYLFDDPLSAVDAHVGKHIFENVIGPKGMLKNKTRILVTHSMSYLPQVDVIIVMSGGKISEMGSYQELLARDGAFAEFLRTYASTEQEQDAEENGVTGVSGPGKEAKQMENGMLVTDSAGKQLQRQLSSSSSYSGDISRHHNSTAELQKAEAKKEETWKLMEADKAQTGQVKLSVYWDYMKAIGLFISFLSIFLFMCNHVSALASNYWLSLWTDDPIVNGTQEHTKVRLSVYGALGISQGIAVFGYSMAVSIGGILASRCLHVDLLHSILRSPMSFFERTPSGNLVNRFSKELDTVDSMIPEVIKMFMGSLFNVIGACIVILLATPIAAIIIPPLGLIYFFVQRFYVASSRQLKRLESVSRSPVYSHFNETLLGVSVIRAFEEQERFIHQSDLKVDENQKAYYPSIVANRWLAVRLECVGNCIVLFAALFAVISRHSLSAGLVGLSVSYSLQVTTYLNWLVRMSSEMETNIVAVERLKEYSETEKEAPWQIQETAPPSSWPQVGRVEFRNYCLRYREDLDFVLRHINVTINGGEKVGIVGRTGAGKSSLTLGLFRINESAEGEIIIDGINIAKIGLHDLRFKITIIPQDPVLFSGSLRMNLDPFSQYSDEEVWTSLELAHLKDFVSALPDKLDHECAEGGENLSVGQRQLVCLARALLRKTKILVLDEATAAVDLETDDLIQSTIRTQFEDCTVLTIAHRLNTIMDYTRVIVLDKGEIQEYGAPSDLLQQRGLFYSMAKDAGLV
Excerpt for prostate cancer tissue: The tissues were next fixed in 4% paraformaldehyde in PBS, embedded in paraffin, sectioned and stained with hematoxylin and eosin.

As to `CCc1cccc2c3c([nH]c12)C(CC)(CC(=O)O)OCC3` (stereo not drawn) [Etodolac R/S, 1,8-diethyl-1,3,4,9-tetrahydro[3,4-6]indole-1-acetic acid], the Mcl-1 levels entry in the series with Mcl-1 (setting [20]) is “fell”. Also, the IC50 with Alva-31 [1] is over 1000 µM; in the series with OVCAR-3 [2], over 1000 µM; in the series with HCT-116 [4], 450 ± 15 µM; in the series with SW260, 1000 ± 120 µM; in the series with LNCaP-FGC [5], 400 ± 35 µM; in the series on A549 [8] it was over 1000 µM. The results for the IC50 with PC-3 [14] and with MDA-MB-231 [17] were 340 ± 20 µM and over 1000 µM, respectively. For the same compound, the Phenoty entry is “Resistant” with OVCAR-3 [3] (OVCAR-3, sensitivity of the cell line to etodolac); “Resistant” in the series with SW260 (SW260, sensitivity of the cell line to etodolac); “Resistant” in the series with A549 [7] (A549, sensitivity of the cell line to etodolac); “Sensitive” in the series with HCT-116 [9] (HCT-116, sensitivity of the cell line to etodolac); “Sensitive” in the series on LNCaP-FGC [10] (LNCaP-FGC, sensitivity of the cell line to etodolac); “Resistant” in the series on MDA-MB-231 [15] (MDA-MB-231, sensitivity of the cell line to etodolac). For the same compound, the Phenoty result in the series with PC-3 [16] (PC-3, sensitivity of the cell line to etodolac) is listed as “Sensitive”; in the series on Alva-31 [18] (Alva-31, sensitivity of the cell line to etodolac), “Resistant”. The “Bcl-2 and Bax levels” value with Bcl-2 and Bax is reported as “did not alter”. Besides, the “apoptotic CLL cells (low DiOC6 staining, left lower box) after versus before treatment” value in the series on CLL cells [6] (flow cytometry, detectable at 12 hours, increases after 24 hours, FIG. 8) is reported as “much higher after the drug”. Moreover, the “in vitro survival of CLL cells after treatment compared to before treatment” value with CLL cells [6] (two 400 mg tablets 12 hours apart, FIG. 6) is recorded as “shortened survival”. Also, the “viability of normal B cells compared to control cultures” value in the series on normal B cells is listed as “did not reduce the viability”. Also, the elimination half-life in [11] (in vivo) is 6 to 8 h. In [12], the “concentration at which significant death of normal PBLs occurred” value came to 800 µM. This compound also returned a CLL cells killed in the series on CLL cells [13] (200 μM, 48 hour exposure, FIG. 2) of 50%. Besides, the “killing of CLL cells by either drug alone” value in the series on CLL cells [13] is “ineffective”. Besides, in the series on prostate cancer tissue, the “effect on normal basal cells in prostatectomy samples” value is “did not affect”. Further, the Bag-1 levels entry in the series on Bag-1 (setting [20]) is on record as “fell”.

For the compound `CCc1cccc2c3c([nH]c12)[C@@](CC)(CC(=O)O)OCC3` [Etodolac R], the “Mcl-1 degradation by the enantiomers” value in the series with Mcl-1 was “induced Mcl-1 degradation at equivalent concentrations”. Also, in the series with adjuvant polyarthritis, the anti-inflammatory activity entry was “No anti-inflammatory activity was discernible”. The IC50 was over 1000 µM with OVCAR-3 [3] (read-out: IC50 cytotoxicity, OVCAR-3 (ovarian), MTT after three days continuous exposure); over 1000 µM in the series with A549 [7] (read-out: IC50 cytotoxicity, A549 (lung), MTT after three days continuous exposure); 280 ± 20 µM with HCT-116 [9] (read-out: IC50 cytotoxicity, HCT-116 (colon), MTT after three days continuous exposure); 270 ± 50 µM in the series with LNCaP-FGC [10] (read-out: IC50 cytotoxicity, LNCaP-FGC (prostate), MTT after three days continuous exposure); over 1000 µM in the series on MDA-MB-231 [15] (read-out: IC50 cytotoxicity, MDA-MB-231 (breast), MTT after three days continuous exposure); 150 ± 15 µM in the series on PC-3 [16] (read-out: IC50 cytotoxicity, PC-3 (prostate), MTT after three days continuous exposure). Further, in the series with Alva-31 [18] (read-out: IC50 cytotoxicity, Alva-31 (prostate), MTT after three days continuous exposure), the IC50 is over 1000 µM. The “activation of PPAR-γ reporter gene construct” value on PPAR-γ was “activated”. In addition, in [19], the “maximal plasma concentration in a human subject (should yield)” value is on record as “about 400 μM”. In addition, in [11] (after a 200 mg dose in six elderly patients), the maximum plasma concentration entry is “about 33 μM”. The “plasma concentrations, fold higher than those of the S-enantiomer” value in series [11] (after the administration of RS-etodolac) is listed as “about 10 fold”.

On to `CCc1cccc2c3c([nH]c12)C(CC)(CC(=O)O)OCC3` (stereo not drawn) [Etodolac S], for which the “Mcl-1 degradation by the enantiomers” value with Mcl-1 was “induced Mcl-1 degradation at equivalent concentrations”. Besides, the anti-inflammatory activity result in the series on adjuvant polyarthritis is recorded as “almost all of the anti-inflammatory activity of the racemate”. Moreover, the half-inhibitory concentration (IC50) was over 1000 µM in the series on Alva-31 [1]; over 1000 µM with OVCAR-3 [2]; 420 ± 50 µM in the series on HCT-116 [4]; 220 ± 20 µM in the series on LNCaP-FGC [5]; over 1000 µM in the series with A549 [8]; 800 µM in the series with PC-3 [14]. In the series with MDA-MB-231 [17], this compound came in with an IC50 of over 1000 µM. Moreover, on PPAR-γ, the “activation of PPAR-γ reporter gene construct” value was “activated”.

`CC(C)C[C@@H](C=O)NC(=O)[C@H](CC(C)C)NC(=O)[C@H](CC(C)C)NC(=O)OCc1ccccc1` [MG-132] (Cbz-Leu-Leu-Leu-aldehyde): in the series on Mcl-1, the “effect on the etodolac-induced fall in Mcl-1 levels” value was “prevented”. Moreover, in the series with Bag-1, the “effect on the etodolac-induced fall in Bag-1 levels” value was “prevented”.

With `COc1ccc2cc([C@H](C)C(=O)O)ccc2c1` [Naproxen], the “increase of the potency of the anti-cancer drug” value at MRP was “inactive”.

With `C[C@@H](C(=O)O)c1ccc(-c2ccccc2)c(F)c1` [R-flurbiprofen], the “progression of prostate cancer” value with prostate cancer is “inhibited progression of prostate cancer”.

Regarding `CC(NC(=O)C(NC(=O)OCc1ccccc1)C(C)C)C(=O)NC(CC(=O)O)C(=O)CF` (stereo not drawn) [Z-VAD] (Cbz-Val-Ala-Asp-CH2F; configuration not given here), the “effect on the etodolac-induced fall in Mcl-1 levels” value with Mcl-1 is reported as “did not prevent”. Also, in the series on Bag-1, the “effect on the etodolac-induced fall in Bag-1 levels” value is reported as “did not prevent”.

As for `CC(=O)Oc1ccccc1C(=O)O` [aspirin], the “viability of B-cell CLL cells in vitro” value with B-cell CLL cells is recorded as “reduced the viability”.

Consider `Nc1nc(F)nc2c1ncn2[C@@H]1O[C@H](CO)[C@@H](O)[C@@H]1O` [fludarabine], for which the “killing of CLL cells by either drug alone” value in the series on CLL cells [13] is “ineffective”.

For the compound `CN1C(C(=O)Nc2ccccn2)=C(O)c2ccccc2S1(=O)=O` [piroxicam], the “increase of the potency of the anti-cancer drug” value at MRP was “inactive”.

As for `O=C(O)c1ccccc1O` [salicylate], the “viability of B-cell CLL cells in vitro” value in the series with B-cell CLL cells is recorded as “reduced the viability”.

One may read the IC50 as the concentration at which inhibition is half-maximal.
